Measured values published in ChEMBL document CHEMBL3596129, “Osthol and curcumin as inhibitors of human Pgp and multidrug efflux pumps of Staphylococcus aureus: reversing the resistance against frontline antibacterial drugs” (Medchemcomm, 2014).

Columns and labels:
[1] = molecular target: T1, ATP-dependent translocase ABCB1 (Homo sapiens, UniProt P08183); test: Inhibition of P-gp in human LS180 cells at 50 uM after 90 mins by rhodamine123 cell exclusion method; type: cell-based; details: ls180, 1.5 h
[2] = molecular target: T1, ATP-dependent translocase ABCB1; test: Inhibition of P-gp in human LS180 cells after 90 mins by rhodamine123 cell exclusion method; type: cell-based
[3] = molecular target: T2, Quinolone resistance protein NorA (Staphylococcus aureus) (UniProt P0A0J7); test: Inhibition of NorA overexpressed in Staphylococcus aureus SA1199B assessed as ciprofloxacin MIC at 25 uM after 24 hrs by broth checkerboard method (reference value: 8 ug/ml)
T2 sequence (whole entry): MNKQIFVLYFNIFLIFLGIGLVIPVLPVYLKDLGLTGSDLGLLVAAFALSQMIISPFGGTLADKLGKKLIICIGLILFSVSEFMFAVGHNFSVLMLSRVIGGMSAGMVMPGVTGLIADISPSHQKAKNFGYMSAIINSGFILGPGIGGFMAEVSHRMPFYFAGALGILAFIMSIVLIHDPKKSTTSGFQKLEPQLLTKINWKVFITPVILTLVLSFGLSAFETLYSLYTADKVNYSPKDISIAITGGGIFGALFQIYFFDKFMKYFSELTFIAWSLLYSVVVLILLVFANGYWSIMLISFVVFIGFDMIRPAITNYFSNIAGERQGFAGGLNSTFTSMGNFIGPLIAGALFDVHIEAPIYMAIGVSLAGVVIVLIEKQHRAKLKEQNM

[4] = molecular target: T2, Quinolone resistance protein NorA (Staphylococcus aureus); test: Inhibition of NorA overexpressed in Staphylococcus aureus SA1199B assessed as decrease in ciprofloxacin MIC at 25 uM after 24 hrs by broth checkerboard method relative to control
[5] = tested on: Staphylococcus aureus; test: Inhibition of TetK overexpressed in Staphylococcus aureus K2192 assessed as tetracycline MIC at 25 uM after 24 hrs by broth checkerboard method (reference value: 32 ug/ml)
[6] = tested on: Staphylococcus aureus; test: Inhibition of TetK overexpressed in Staphylococcus aureus K2192 assessed as decrease in tetracycline MIC at 25 uM after 24 hrs by broth checkerboard method relative to control
[7] = tested on: Staphylococcus aureus; test: Inhibition of MsrA overexpressed in Staphylococcus aureus K2191 assessed as erythromycin MIC at 25 uM after 24 hrs by broth checkerboard method (reference value: 64 ug/ml)
[8] = tested on: Staphylococcus aureus; test: Inhibition of MsrA overexpressed in Staphylococcus aureus K2191 assessed as decrease in erythromycin MIC at 25 uM after 24 hrs by broth checkerboard method relative to control
[9] = molecular target: T3, Fluoroquinolone resistance protein (Staphylococcus aureus) (UniProt A0A0C5K5S3); test: Inhibition of MdeA overexpressed in Staphylococcus aureus Mupr-1 assessed as mupirocin MIC at 25 uM after 24 hrs by broth checkerboard method (reference value: 256 ug/ml)
T3 sequence (whole entry): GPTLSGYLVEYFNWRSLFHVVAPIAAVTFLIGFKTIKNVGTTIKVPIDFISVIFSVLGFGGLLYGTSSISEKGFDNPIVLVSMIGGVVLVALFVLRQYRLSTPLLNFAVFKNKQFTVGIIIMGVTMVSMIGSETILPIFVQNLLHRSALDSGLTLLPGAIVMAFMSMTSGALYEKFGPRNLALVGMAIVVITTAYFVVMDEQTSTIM

[10] = molecular target: T3, Fluoroquinolone resistance protein (Staphylococcus aureus); test: Inhibition of MdeA overexpressed in Staphylococcus aureus Mupr-1 assessed as decrease in mupirocin MIC at 25 uM after 24 hrs by broth checkerboard method relative to control
[11] = molecular target: T2, Quinolone resistance protein NorA (Staphylococcus aureus); test: Inhibition of NorA overexpressed in Staphylococcus aureus SA1199B assessed as ciprofloxacin MIC at 50 uM after 24 hrs by broth checkerboard method (reference value: 8 ug/ml)
[12] = molecular target: T2, Quinolone resistance protein NorA (Staphylococcus aureus); test: Inhibition of NorA overexpressed in Staphylococcus aureus SA1199B assessed as decrease in ciprofloxacin MIC at 50 uM after 24 hrs by broth checkerboard method relative to control
[13] = tested on: Staphylococcus aureus; test: Inhibition of TetK overexpressed in Staphylococcus aureus K2192 assessed as tetracycline MIC at 50 uM after 24 hrs by broth checkerboard method (reference value: 32 ug/ml)
[14] = tested on: Staphylococcus aureus; test: Inhibition of TetK overexpressed in Staphylococcus aureus K2192 assessed as decrease in tetracycline MIC at 50 uM after 24 hrs by broth checkerboard method relative to control
[15] = tested on: Staphylococcus aureus; test: Inhibition of MsrA overexpressed in Staphylococcus aureus K2191 assessed as erythromycin MIC at 50 uM after 24 hrs by broth checkerboard method (reference value: 64 ug/ml)
[16] = tested on: Staphylococcus aureus; test: Inhibition of MsrA overexpressed in Staphylococcus aureus K2191 assessed as decrease in erythromycin MIC at 50 uM after 24 hrs by broth checkerboard method relative to control
[17] = molecular target: T3, Fluoroquinolone resistance protein (Staphylococcus aureus); test: Inhibition of MdeA overexpressed in Staphylococcus aureus Mupr-1 assessed as mupirocin MIC at 50 uM after 24 hrs by broth checkerboard method (reference value: 256 ug/ml)
[18] = molecular target: T3, Fluoroquinolone resistance protein (Staphylococcus aureus); test: Inhibition of MdeA overexpressed in Staphylococcus aureus Mupr-1 assessed as decrease in mupirocin MIC at 50 uM after 24 hrs by broth checkerboard method relative to control
[19] = tested on: P-gp; test: Substrate activity at P-gp in human Caco2 cells assessed as apparent permeability across basolateral to apical side at 10 uM after 90 mins by HPLC with mass spectrometric method; type: ADME, cell-based; details: Caco-2
[20] = tested on: P-gp; test: Substrate activity at P-gp in human Caco2 cells assessed as efflux ratio of apparent permeability across basolateral to apical side over apical to basolateral side at 10 uM after 90 mins by HPLC with mass spectrometric method; type: ADME, cell-based; details: Caco-2
[21] = molecular target: CYP3A4 (Homo sapiens, UniProt P08684); test: Inhibition of human CYP3A4 at 10 uM preincubated for 10 mins with cofactor followed by mixture of enzyme-substrate addition by fluorescence assay relative to control; type: ADME
[22] = molecular target: CYP2D6 (Homo sapiens, UniProt P10635); test: Inhibition of human CYP2D6 at 10 uM preincubated for 10 mins with cofactor followed by mixture of enzyme-substrate addition by fluorescence assay relative to control; type: ADME
[23] = molecular target: CYP2C9 (Homo sapiens, UniProt P11712); test: Inhibition of human CYP2C9 at 10 uM preincubated for 10 mins with cofactor followed by mixture of enzyme-substrate addition by fluorescence assay relative to control; type: ADME
[24] = molecular target: T2, Quinolone resistance protein NorA (Staphylococcus aureus); test: Inhibition of NorA overexpressed in Staphylococcus aureus SA1199B assessed as ciprofloxacin MIC at 12.5 uM after 24 hrs by broth checkerboard method (reference value: 8 ug/ml)
[25] = molecular target: T2, Quinolone resistance protein NorA (Staphylococcus aureus); test: Inhibition of NorA overexpressed in Staphylococcus aureus SA1199B assessed as decrease in ciprofloxacin MIC at 12.5 uM after 24 hrs by broth checkerboard method relative to control
[26] = tested on: Staphylococcus aureus; test: Inhibition of TetK overexpressed in Staphylococcus aureus K2192 assessed as tetracycline MIC at 12.5 uM after 24 hrs by broth checkerboard method (reference value: 32 ug/ml)
[27] = tested on: Staphylococcus aureus; test: Inhibition of TetK overexpressed in Staphylococcus aureus K2192 assessed as decrease in tetracycline MIC at 12.5 uM after 24 hrs by broth checkerboard method relative to control
[28] = tested on: Staphylococcus aureus; test: Inhibition of MsrA overexpressed in Staphylococcus aureus K2191 assessed as erythromycin MIC at 12.5 uM after 24 hrs by broth checkerboard method (reference value: 64 ug/ml)
[29] = tested on: Staphylococcus aureus; test: Inhibition of MsrA overexpressed in Staphylococcus aureus K2191 assessed as decrease in erythromycin MIC at 12.5 uM after 24 hrs by broth checkerboard method relative to control
[30] = molecular target: T3, Fluoroquinolone resistance protein (Staphylococcus aureus); test: Inhibition of MdeA overexpressed in Staphylococcus aureus Mupr-1 assessed as mupirocin MIC at 12.5 uM after 24 hrs by broth checkerboard method (reference value: 256 ug/ml)
[31] = molecular target: T3, Fluoroquinolone resistance protein (Staphylococcus aureus); test: Inhibition of MdeA overexpressed in Staphylococcus aureus Mupr-1 assessed as decrease in mupirocin MIC at 12.5 uM after 24 hrs by broth checkerboard method relative to control

Sequence of CYP2C9 (P11712 whole entry): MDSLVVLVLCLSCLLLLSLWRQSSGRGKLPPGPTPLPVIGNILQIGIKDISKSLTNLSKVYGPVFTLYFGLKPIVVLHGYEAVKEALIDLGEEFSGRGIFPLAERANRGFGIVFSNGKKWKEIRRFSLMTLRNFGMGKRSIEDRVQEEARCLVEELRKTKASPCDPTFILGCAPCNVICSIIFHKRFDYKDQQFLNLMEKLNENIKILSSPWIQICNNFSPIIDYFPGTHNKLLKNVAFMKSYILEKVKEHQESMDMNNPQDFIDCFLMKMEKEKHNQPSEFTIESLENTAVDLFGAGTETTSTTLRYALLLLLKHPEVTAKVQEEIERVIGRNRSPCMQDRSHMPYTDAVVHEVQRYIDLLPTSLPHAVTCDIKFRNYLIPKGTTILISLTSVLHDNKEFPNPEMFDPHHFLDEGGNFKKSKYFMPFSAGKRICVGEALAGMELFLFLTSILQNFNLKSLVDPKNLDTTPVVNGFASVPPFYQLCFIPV
Sequence of CYP2D6 (P10635 whole entry): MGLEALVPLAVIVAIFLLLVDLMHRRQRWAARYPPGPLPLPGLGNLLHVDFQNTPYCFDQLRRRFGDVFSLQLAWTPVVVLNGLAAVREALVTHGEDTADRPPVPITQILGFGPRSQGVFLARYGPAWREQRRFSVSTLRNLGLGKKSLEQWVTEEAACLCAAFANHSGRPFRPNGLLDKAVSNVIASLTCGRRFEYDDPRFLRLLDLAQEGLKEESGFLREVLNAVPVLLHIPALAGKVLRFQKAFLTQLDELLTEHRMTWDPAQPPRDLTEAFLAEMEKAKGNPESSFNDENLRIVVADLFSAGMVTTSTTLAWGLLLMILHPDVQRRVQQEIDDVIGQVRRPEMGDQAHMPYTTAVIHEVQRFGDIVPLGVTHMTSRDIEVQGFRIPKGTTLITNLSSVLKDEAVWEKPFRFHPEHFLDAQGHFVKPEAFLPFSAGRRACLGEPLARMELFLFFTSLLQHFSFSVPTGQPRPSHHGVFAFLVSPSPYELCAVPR
Sequence of CYP3A4 (P08684 whole entry): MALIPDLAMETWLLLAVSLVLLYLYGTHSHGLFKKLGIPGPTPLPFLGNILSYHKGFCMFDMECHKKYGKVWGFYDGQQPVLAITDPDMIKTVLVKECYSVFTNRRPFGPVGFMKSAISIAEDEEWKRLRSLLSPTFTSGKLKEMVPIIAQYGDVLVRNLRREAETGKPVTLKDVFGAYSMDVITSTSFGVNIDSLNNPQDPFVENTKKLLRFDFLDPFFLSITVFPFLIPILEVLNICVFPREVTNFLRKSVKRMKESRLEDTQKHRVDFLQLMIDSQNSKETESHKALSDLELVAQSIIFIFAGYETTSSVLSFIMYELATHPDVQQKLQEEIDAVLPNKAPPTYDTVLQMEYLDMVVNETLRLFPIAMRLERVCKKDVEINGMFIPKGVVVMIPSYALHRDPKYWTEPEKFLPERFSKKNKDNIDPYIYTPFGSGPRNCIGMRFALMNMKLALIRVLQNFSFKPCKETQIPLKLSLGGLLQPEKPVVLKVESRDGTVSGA

SMILES | inhibition (INH) [1] | IC50 [2] | MIC [3] | fold change (FC) [4] | MIC [5] | fold change (FC) [6] | MIC [7] | fold change (FC) [8] | MIC [9] | fold change (FC) [10] | other results
C/C=C(\C)C(=O)OC1c2c(ccc3ccc(=O)oc23)OC(C)(C)C1OC(=O)/C(C)=C/C (stereo not given) | Not Active | 16 µM | 4 µg/mL | 2 | 32 µg/mL | 0 | 64 µg/mL | 0 | 256 µg/mL | 0 | 
CC(=O)Oc1cc(OC(C)=O)c2ccc(=O)oc2c1CC=C(C)C | Not Active | 44 µM | 4 µg/mL | 2 | 16 µg/mL | 2 | 16 µg/mL | 4 | 256 µg/mL | 0 | 
CC(C)=CCc1c(O)cc(O)c2ccc(=O)oc12 | Not Active |  | 4 µg/mL | 2 | 32 µg/mL | 0 | 64 µg/mL | 0 | 256 µg/mL | 0 | 
C=CC(C)(C)c1cc2cc3c(cc2oc1=O)OC(C)(C)C=C3 | Not Active | 15 µM | 2 µg/mL | 4 | 16 µg/mL | 2 | 64 µg/mL | 0 | 256 µg/mL | 0 | 
CCC/C=C1\OC(=O)C2CC3CCC12C1(OC(=O)C2=C1CCCC2)C3CCC (stereo not given) | Not Active |  |  |  |  |  |  |  |  |  | MIC [11]: 8 µg/mL; fold change (FC) [12]: 0; MIC [13]: 32 µg/mL; fold change (FC) [14]: 0; MIC [15]: 64 µg/mL; fold change (FC) [16]: 0; MIC [17]: 256 µg/mL; fold change (FC) [18]: 0
O=C(/C=C/C=C/c1ccc2c(c1)OCO2)N1CCCCC1 |  |  | 4 µg/mL | 2 | 32 µg/mL | 0 | 64 µg/mL | 0 | 256 µg/mL | 0 | 
COc1cc(/C=C/C(=O)CC(=O)/C=C/c2ccc(O)c(OC)c2)ccc1O [CURCUMIN] | Not Active | 62 µM | 1 µg/mL | 8 | 32 µg/mL | 0 | 64 µg/mL | 0 | 256 µg/mL | 0 | 
C[C@H]1O[C@@H](O[C@H]2[C@@H](O)C[C@H](O[C@H]3[C@@H](O)C[C@H](O[C@H]4CC[C@@]5(C)[C@H](CC[C@@H]6[C@@H]5C[C@@H](O)[C@]5(C)[C@@H](C7=CC(=O)OC7)CC[C@]65O)C4)O[C@@H]3C)O[C@@H]2C)C[C@H](O)[C@@H]1O [DIGOXIN] |  |  |  |  |  |  |  |  |  |  | Papp B→A at 1.5 h, 10 µM [19]: 12.4 ×10⁻⁶ cm/s; efflux ratio at 1.5 h, 10 µM [20]: 41.5
CC(=O)N1CCN(c2ccc(OCC3COC(Cn4ccnc4)(c4ccc(Cl)cc4Cl)O3)cc2)CC1 (stereo not given) [KETOCONAZOLE] |  |  |  |  |  |  |  |  |  |  | inhibition at 10 µM [21]: 95.2%
CC(C)=CCc1c(O)ccc2ccc(=O)oc12 [OSTHENOL] | Not Active |  |  |  |  |  |  |  |  |  | MIC [11]: 2 µg/mL; fold change (FC) [12]: 4; MIC [13]: 32 µg/mL; fold change (FC) [14]: 0; MIC [15]: 64 µg/mL; fold change (FC) [16]: 0; MIC [17]: 256 µg/mL; fold change (FC) [18]: 0
Fc1ccc([C@@H]2CCNC[C@H]2COc2ccc3c(c2)OCO3)cc1 [PAROXETINE] |  |  |  |  |  |  |  |  |  |  | inhibition at 10 µM [22]: 96.5%
CC(C)=CCOc1c2occc2cc2ccc(=O)oc12 [PENTOSALEN] | Not Active | 28 µM | 4 µg/mL | 2 | 32 µg/mL | 0 | 64 µg/mL | 0 | 128 µg/mL | 2 | 
COc1c2ccoc2c(OCC=C(C)C)c2oc(=O)ccc12 [PHELLOPTERIN] | Not Active | 32 µM | 4 µg/mL | 2 | 32 µg/mL | 0 | 32 µg/mL | 2 | 256 µg/mL | 0 | 
COc1c(C(=O)/C=C(\O)c2ccccc2)ccc2occc12 [PONGAMOL] | Not Active | 88 µM | 4 µg/mL | 2 | 32 µg/mL | 0 | 64 µg/mL | 0 | 256 µg/mL | 0 | 
Nc1ccc(S(=O)(=O)Nc2ccnn2-c2ccccc2)cc1 [SULFAPHENAZOLE] |  |  |  |  |  |  |  |  |  |  | inhibition at 10 µM [23]: 93.7%
COc1ccc(-c2cc(=O)c3c(OC)c(OC)c(OC)c(OC)c3o2)cc1 [TANGERETIN] | Not Active |  |  | 2 |  |  |  |  |  |  | MIC [24]: 4 µg/mL; fold change (FC) [25]: 2; MIC [26]: 32 µg/mL; fold change (FC) [27]: 0; MIC [28]: 32 µg/mL; fold change (FC) [29]: 2; MIC [30]: 128 µg/mL; fold change (FC) [31]: 2
